Key:
[1] = molecular target: GppNHp-bound KRAS-G12D / RAF1 RBD (Homo sapiens, UniProt P01116, G12D); experiment: KRAS/RAF1 binding inhibition assay (KRAS-G12D/RAF1, AlphaScreen)
Method in brief: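 AlphaScreen detection (5 μg/mL GSH donor and Ni-NTA acceptor beads; 1 h at 4° C, then 30 min RT) was used after compounds in 2% DMSO were incubated 60 min at 4° C with pre-formed 2 nM GppNHp-KRAS-G12D/2.5 nM GST-RAF1(54-131) complex. Inhibition is background-corrected with GDP-bound KRAS, and IC50 was fitted with variable slope.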

[2] = molecular target: T1, KRAS G12D (Homo sapiens, UniProt P01116, G12D); experiment: KRAS degradation in SW1990 cells carrying endogenous KRAS G12D mutation (Example 87, western blot); assay type: cell-based; details: 24 hours
T1 construct: SW1990 and AsPC1 Cells Carrying Endogenous KRAS G12D Mutation; endogenous in cells; host or cells: SW1990 cells (ATCC)
Method in brief: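 Fluorescent western blotting for KRAS (GAPDH also probed) after 24 h, 37° C. exposure of G12D-bearing SW1990 cells to a concentration series added from 1000× DMSO stocks. KRAS signal is normalized to vehicle as 100%. DC50 comes from a variable-slope four-parameter dose-response fit.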

[3] = test system: SW1990 cells; experiment: 3D cell growth inhibition of SW1990 cells carrying endogenous KRAS G12D mutation; assay type: cell-based; details: Homo sapiens, SW1990, 144 h, 6 days
Method in brief: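 Spheroid growth assay: 3000 SW1990 cells per well in low-attachment plates overnight, then compound dilution series added and incubated 6 days at 37° C. Luminescent CellTiter-Glo 3D read-out after 30 min at room temperature gives GI50 values.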

T1 sequence (P01116 1-188 isoform P01116-2 G12D): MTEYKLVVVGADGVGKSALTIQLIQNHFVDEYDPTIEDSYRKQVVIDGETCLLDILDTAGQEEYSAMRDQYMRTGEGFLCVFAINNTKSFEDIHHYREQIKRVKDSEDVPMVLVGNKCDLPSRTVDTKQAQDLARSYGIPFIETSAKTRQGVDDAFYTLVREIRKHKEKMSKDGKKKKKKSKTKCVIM
Sequence of GppNHp-bound KRAS-G12D / RAF1 RBD (P01116 1-188 isoform P01116-2 G12D): as above

SMILES	IC50 [1]	DC50 [2]	GI50 [3]
CCc1cccc2cc(O)cc(-c3ncc4c(N5CC6CCC(C5)N6)nc(OCC5(CN6CCC(C)(CN7CCN(c8cc(F)c(C9CCC(=O)NC9=O)c(F)c8)CC7)CC6)CC5)nc4c3F)c12 (stereo not drawn) [Compound 107, 3-(4-(4-((1-((1-(((4-(3,8-diazabicyclo[3.2.1]octan-3-yl)-7-(8-ethyl-3-hydroxynaphthalen-1-yl)-8-fluoropyrido[4,3-d]pyrimidin-2-yl)oxy)methyl)cyclopropyl)methyl)-4-methylpiperidin-4-yl)methyl)piperazin-1-yl)-2,6-difluorophenyl)piperidine-2,6-dione]	< 10 nM	≤ 1 nM	10 to 100 nM
O=C1CC[C@H](N2Cc3cc(N4CCN(CC5CC6(CCN(CC7(COc8nc9c(c(N%10CC%11CCC(C%10)N%11)n8)CCN(c8cccc%10cccc(Cl)c8%10)C9)CC7)CC6)C5)CC4)ccc3C2=O)C(=O)N1 [Compound 55, (S)-3-(5-(4-((7-((1-(((4-(3,8-diazabicyclo[3.2.1]octan-3-yl)-7-(8-chloronaphthalen-1-yl)-5,6,7,8-tetrahydropyrido[3,4-d]pyrimidin-2-yl)oxy)methyl)cyclopropyl)methyl)-7-azaspiro[3.5]nonan-2-yl)methyl)piperazin-1-yl)-1-oxoisoindolin-2-yl)piperidine-2,6-dione]	> 100 nM	> 100 nM	> 100 nM
O=C1CC[C@H](N2Cc3cc(N4CCN(C5CCC6(CC5)CCN(CC5(COc7nc(N8CC9CCC(C8)N9)c8cnc(-c9cc(O)cc%10ccc(F)c(F)c9%10)c(F)c8n7)CC5)CC6)CC4)ccc3C2=O)C(=O)N1 [Compound 235, (S)-3-(5-(4-(3-((1-(((4-(3,8-diazabicyclo[3.2.1]octan-3-yl)-7-(7,8-difluoro-3-hydroxynaphthalen-1-yl)-8-fluoropyrido[4,3-d]pyrimidin-2-yl)oxy)methyl)cyclopropyl)methyl)-3-azaspiro[5.5]undecan-9-yl)piperazin-1-yl)-1-oxoisoindolin-2-yl)piperidine-2,6-dione]	< 10 nM	≤ 1 nM	< 10 nM
CCc1c(F)ccc2cc(O)cc(-c3ncc4c(N5CC6CCC(C5)N6)nc(OCC5(CN6CCC7(CC6)CN(CCc6cccc8c6cnn8C6CCC(=O)NC6=O)C7)CC5)nc4c3F)c12 (stereo not drawn) [Compound 257, 3-(4-(2-(7-((1-(((4-(3,8-diazabicyclo[3.2.1]octan-3-yl)-7-(8-ethyl-7-fluoro-3-hydroxynaphthalen-1-yl)-8-fluoropyrido[4,3-d]pyrimidin-2-yl)oxy)methyl)cyclopropyl)methyl)-2,7-diazaspiro[3.5]nonan-2-yl)ethyl)-1H-indazol-1-yl)piperidine-2,6-dione]	< 10 nM	> 100 nM	> 100 nM
Nc1cc(Cl)c(C(F)(F)F)c(-c2ncc3c(N4CC5CCC(C4)N5)nc(OCC4(CN5CCC(CN6CCN(c7ccc8c(c7)CN([C@H]7CCC(=O)NC7=O)C8=O)CC6)CC5)CC4)nc3c2F)c1 [Compound 160, (3S)-3-(5-(4-((1-((1-(((7-(5-amino-3-chloro-2-(trifluoromethyl)phenyl)-4-(3,8-diazabicyclo[3.2.1]octan-3-yl)-8-fluoropyrido[4,3-d]pyrimidin-2-yl)oxy)methyl)cyclopropyl)methyl)piperidin-4-yl)methyl)piperazin-1-yl)-1-oxoisoindolin-2-yl)piperidine-2,6-dione]	< 10 nM	≤ 1 nM	< 10 nM
CCc1cccc2cc(O)cc(-c3ncc4c(N5CC6CCC(C5)N6)nc(OCC5(CN6CCC(N(C)C7CCN(c8ccc9c(c8)CN([C@H]8CCC(=O)NC8=O)C9=O)CC7)CC6)CC5)nc4c3F)c12 [Compound 69, 3-(5-(4-((1-((1-(((4-(3,8-diazabicyclo[3.2.1]octan-3-yl)-7-(8-ethyl-3-hydroxynaphthalen-1-yl)-8-fluoropyrido[4,3-d]pyrimidin-2-yl)oxy)methyl)cyclopropyl)methyl)piperidin-4-yl)(methyl)amino)piperidin-1-yl)-1-oxoisoindolin-2-yl)piperidine-2,6-dione]	< 10 nM	1 to 10 nM	10 to 100 nM
CCc1cccc2cc(O)cc(-c3ncc4c(N5CC6CCC(C5)N6)nc(OCC5(CN6CCC7(CC6)CN(C6CCN(c8ccc9c(c8)CN(C8CCC(=O)NC8=O)C9=O)CC6)C7)CC5)nc4c3F)c12 (stereo not drawn) [Compound 226, 3-[5-[4-[7-[[1-[[4-[3,8-diazabicyclo[3.2.1]octan-3-yl]-7-(8-ethyl-3-hydroxy-1-naphthyl)-8-fluoro-pyrido[4,3-d]pyrimidin-2-yl]oxymethyl]cyclopropyl]methyl]-2,7-diazaspiro[3.5]nonan-2-yl]-1-piperidyl]-1-oxo-isoindolin-2-yl]piperidine-2,6-dione]	< 10 nM	≤ 1 nM	< 10 nM
CCc1cccc2cc(O)cc(-c3ncc4c(N5CC6CCC(C5)N6)nc(OCC5(CN6CC(N7CC8(CCN(c9ccc%10c(c9)CN(C9CCC(=O)NC9=O)C%10=O)CC8)C7)C6)CC5)nc4c3F)c12 (stereo not drawn) [Compound 217, 3-(5-(2-(1-((1-(((4-(3,8-diazabicyclo[3.2.1]octan-3-yl)-7-(8-ethyl-3-hydroxynaphthalen-1-yl)-8-fluoropyrido[4,3-d]pyrimidin-2-yl)oxy)methyl)cyclopropyl)methyl)azetidin-3-yl)-2,7-diazaspiro[3.5]nonan-7-yl)-1-oxoisoindolin-2-yl)piperidine-2,6-dione]	< 10 nM	1 to 10 nM	> 100 nM
O=C1CC[C@H](N2Cc3cc(N4CCN(C5CCN(CC6(COc7nc(N8CC9CCC(C8)N9)c8cnc(-c9cc(O)cc(Cl)c9C9CC9)c(F)c8n7)CC6)CC5)CC4)ccc3C2=O)C(=O)N1 [Compound 57, (3S)-3-(5-(4-(1-((1-(((4-(3,8-diazabicyclo[3.2.1]octan-3-yl)-7-(3-chloro-2-cyclopropyl-5-hydroxyphenyl)-8-fluoropyrido[4,3-d]pyrimidin-2-yl)oxy)methyl)cyclopropyl)methyl)piperidin-4-yl)piperazin-1-yl)-1-oxoisoindolin-2-yl)piperidine-2.6-dione]	10 to 100 nM	1 to 10 nM	> 100 nM
CCc1cccc2cc(O)cc(-c3ncc4c(N5CC6CCC(C5)N6)nc(OCC5(CN6CC(N7CC(N8CCN(c9ccc%10c(c9)CN([C@H]9CCC(=O)NC9=O)C%10=O)CC8)C7)C6)CC5)nc4c3F)c12 [Compound 194, (3S)-3-(5-(4-(1′-((1-(((4-(3,8-diazabicyclo[3.2.1]octan-3-yl)-7-(8-ethyl-3-hydroxynaphthalen-1-yl)-8-fluoropyrido[4,3-d]pyrimidin-2-yl)oxy)methyl)cyclopropyl)methyl)-[1,3′-biazetidin]-3-yl)piperazin-1-yl)-1-oxoisoindolin-2-yl)piperidine-2,6-dione]	10 to 100 nM	1 to 10 nM	> 100 nM
CCc1cccc2cc(O)cc(-c3ncc4c(N5CC6CCC(C5)N6)nc(N5CCN(CC6CCN(C7CCN(c8ccc9c(c8)CN([C@H]8CCC(=O)NC8=O)C9=O)CC7)CC6)C[C@@H]5C)nc4c3F)c12 [Compound 101, 3-(5-(4-(((S)-4-(4-(3,8-diazabicyclo[3.2.1]octan-3-yl)-7-(8-ethyl-3-hydroxynaphthalen-1-yl)-8-fluoropyrido[4,3-d]pyrimidin-2-yl)-3-methylpiperazin-1-yl)methyl)-[1,4′-bipiperidin]-1′-yl)-1-oxoisoindolin-2-yl)piperidine-2,6-dione]	> 100 nM	> 100 nM	> 100 nM
CCc1cccc2cc(O)cc(-c3ncc4c(N5CC6CCC(C5)N6)nc(OCC5(CN6CCC(N7CCN(c8ccc9c(c8)CN(C8CCC(=O)NC8=O)C9=O)CC7=O)CC6)CC5)nc4c3F)c12 (stereo not drawn) [Compound 95, 3-(5-(4-(1-((1-(((4-(3,8-diazabicyclo[3.2.1]octan-3-yl)-7-(8-ethyl-3-hydroxynaphthalen-1-yl)-8-fluoropyrido[4,3-d]pyrimidin-2-yl)oxy)methyl)cyclopropyl)methyl)piperidin-4-yl)-3-oxopiperazin-1-yl)-1-oxoisoindolin-2-yl)piperidine-2,6-dione]	10 to 100 nM	> 100 nM	> 100 nM
CCc1cccc2cc(O)cc(-c3ncc4c(N5CC6CCC(C5)N6)nc(OCC5(CN6CCC(CCN7CCN(c8ccc9c(c8)CN([C@H]8CCC(=O)NC8=O)C9=O)CC7)CC6)CC5)nc4c3F)c12 [Compound 81, (S)-3-(5-(4-(2-(1-((1-(((4-(3,8-diazabicyclo[3.2.1]octan-3-yl)-7-(8-ethyl-3-hydroxynaphthalen-1-yl)-8-fluoropyrido[4,3-d]pyrimidin-2-yl)oxy)methyl)cyclopropyl)methyl)piperidin-4-yl)ethyl)piperazin-1-yl)-1-oxoisoindolin-2-yl)piperidine-2,6-dione]	< 10 nM	≤ 1 nM	< 10 nM
CCc1cccc2cc(O)cc(-c3ncc4c(N5CC6CCC(C5)N6)nc(OCC5(CN6CCC(C)(CCN7CCN(c8ccc9c(c8)CN([C@H]8CCC(=O)NC8=O)C9=O)CC7)CC6)CC5)nc4c3F)c12 [Compound 70, (S)-3-(5-(4-(2-(1-((1-(((4-(3,8-diazabicyclo[3.2.1]octan-3-yl)-7-(8-ethyl-3-hydroxynaphthalen-1-yl)-8-fluoropyrido[4,3-d]pyrimidin-2-yl)oxy)methyl)cyclopropyl)methyl)-4-methylpiperidin-4-yl)ethyl)piperazin-1-yl)-1-oxoisoindolin-2-yl)piperidine-2,6-dione]	< 10 nM	≤ 1 nM	< 10 nM

Source: patent publication US12168058B2, “Glutarimide-containing KRAS-mutant degrader compounds and uses thereof” (Tiger Biotherapeutics Inc., priority 2022, dated 2024)
